{"source": "patent US20220356163A1", "about": "“SMALL MOLECULE INHIBITORS OF Id PROTEINS” (MEMORIAL SLOAN KETTERING CANCER CENTER, priority 2019, published 2022)", "system": "choroidal neovascularization", "assay": "Laser-induced choroidal neovascularization (CNV) model of AMD", "assay_type": "in vivo, mouse", "conditions": "intravitreal days 1 and 7; 10 μg AGX51E2, 40 μg Aflibercept", "source_text": "Mouse mode/s of ocular neovascularization. CNV was induced as previously described. Tobe et al., Am. J. Pathol., 153, 1641-1646 (1998). Briefly, 4-6 week-old female Id1^−/− or Id3^−/− mice and littermate control Id1^+/+ or Id3^+/+ mice (all in C57BL/6 background) had laser-induced rupture of Bruch's membrane at three locations in each eye and after 14 days mice were euthanized, eyes were removed, and choroidal flat mounts were stained with FITC-labeled Griffonia simplicifolia lectin (Vector Laboratories, Burlingame, Calif.) which selectively stains vascular cells (n=12 mice per group). Flat mounts were examined by fluorescence microscopy and the area of each CNV was measured by image analysis with Image-Pro Plus software (Media Cybernetics, Silver Spring, Md.) by an observer masked with respect to experimental groups. In other experiments, wild type 4-6 week-old, female, C57BL/6 mice had rupture of Bruch's membrane in each eye followed by intravitreal injection of 1-30 μg of AGX51 (racemic, E1 or E2) or vehicle in one eye immediately and after 7 days or mice were given twice daily i.p. injections of 500 μg of AGX51 or vehicle for 14 days (n=7-10 mice per group). The area of CNV was measured 14 days after rupture of Bruch's membrane. For Aflibercept and AGX-A treatment experiments, rupture of Bruch's membrane was carried out and then mice were treated with 40 μg of Aflibercept, 10 μg of AGX51E2, 1-5 μg of AGX51, 1-5 μg of AGX-A, DMSO or combinations. The mice were 4-6 week-old female C57BL/6. After 14 days, the mice were euthanized and CNV was measured as described above.", "data": [{"substance": "Aflibercept: clinically approved treatment for AMD, a VEGF trap", "values": [{"measurement": "CNV area, head-to-head and combination treatment", "value": "failed to reach statistical significance"}]}]}
